Measurements as given in EP0845210A1, “New herbicidal compositions” (RHONE-POULENC AGRICULTURE LTD., priority 1994, dated 1996).

Key:
Experiment in all cases: Procedure D: pre-emergence field trial (Volga, Brookings), visual assessment about 26 days after treatment
Assay type in all cases: in vivo
Helianthus annuus = conditions: A 37.5 g/ha alone
Experimental: (§1) The following experiments were carried out pre-emergence of the weed species. Compound A, formulated as a wettable dispersible granule as described in Example 1 herebelow (750g per kilogram) and each acetochlor (used as the commercially available formulation "Harness" (trade mark), an emulsifiable concentrate containing 960g of acetochlor per kilogram, and which also contains the safening agent flurazole, metolachlor (used as the commercially available formulation "Duelor" (trade mark), an emulsifiable concentrate emulsifiable concentrate containing 960g of metolachlor per kilogram), alachlor (used as the commercially available formulation "Lasso" (trade mark), an emulsifiable concentrate containing 480g of alachlor per kilogram) and dimethenamid (used as the commercially available formulation "Frontiere" (trade mark), a flowable containing 900g/l active ingerident) were dissolved in water and sprayed at a volume rate of 187 litres/hectare on various test plots (10 square meters in area) either alone or in mixtures. The soil was a clay-loam, with a pH of 7, the experiments being conducted in June in Volga, Brookings, U.S.A. The various weed and crop species were drill sown and the various compositions were applied on the same day after drilling. Three replicates were performed and the efficacy of the various mixtures were determined by visual assessment of the percentage phytotoxicity in comparison with an untreated control. Assessment was made about 26 days after treatment. In the Tables which follow the dose is expressed in grammes per hectare and the figures in brackets represent the expected results according to the Colby formula.

Abutilon theophrasti = conditions: A 37.5 g/ha alone
Experimental: as §1

Panicum miliaceum = conditions: A 375 g/ha alone
Experimental: as §1

`CS(=O)(=O)c1cc(C(F)(F)F)ccc1C(=O)c1cnoc1C1CC1` [Compound A, 5-cyclopropyl-4-(2-methylsulphonyl-4-trifluoromethyl)benzoylisoxazole] gave a percentage phytotoxicity (Helianthus annuus) of 18%, a percentage phytotoxicity (Abutilon theophrasti) of 93% and a percentage phytotoxicity (Panicum miliaceum) of 65%.
